Test results published in patent US9802947B2, “3-oxo-tetrahydro-furo[3,2-b]pyrrol-4(5H)-yl) derivatives II” (GRÜNENTHAL GMBH, priority 2014, dated 2017).
pKi: −log10 of the molar value.

Legend:
Format in all cases: biochemical
[1] = molecular target: recombinant human cathepsin L (hCatL) (Homo sapiens (Human), UniProt P07711); assay: CatL functional enzyme assay (fluorogenic substrate Z-VVR-AMC); settings: pH 5.5
Method: (§1) Reference and test compounds were assayed for inhibitory potency (IC50) against human cathepsins using the following assay setups:
(§2) Recombinant human cathepsins (CatS, CatK, CatL, CatB) were purchased from a Enzo Life Sciences. All assays were carried out in 96-well format using a buffer of 50 mM KH2PO4, 50 mM NaCl, 2 mM EDTA, 0.5 mM DTT and 1% Triton-X-100, pH 6.5 for Cathepsin S and a buffer of 50 mM NaOAc, 10 mM EDTA, 1 mM DTT and 0.01% Triton-X-100, pH 5.5 for CatK/L/B. For CatS, the enzyme (0.0007 mU/well) was incubated with fluorogeninc substrate (Z-VVR-AMC, 5 μM) at RT for 10 min. For CatK the enzyme (0.00175 mU/well) was incubated with fluorogeninc substrate (Z-FR-AMC, 40 μM) at RT for 10 min. For CatL, the enzyme (0.000874 mU/well) was incubated with fluorogeninc substrate (Z-VVR-AMC, 40 μM) at RT for 10 min. For CatB the enzyme was incubated with fluorogenic substrate (Z-VVR-AMC, 200 μM) at RT for 10 min. Flourogenic substrate turnover was detected using a microplate reader (Synergyl™ H4, BioTek). Ki values were calculated using the Cheng Prusoff equation (Cheng & Prosoff 1973).

[2] = molecular target: recombinant human cathepsin K (hCatK) (Homo sapiens (Human), UniProt P43235); assay: CatK functional enzyme assay (fluorogenic substrate Z-FR-AMC); settings: for pKi: Ki calculated by Cheng Prusoff equation, pH 5.5; for Selectivity Ki(hCatS)/Ki(hCatK): ratio of Ki hCatS to Ki hCatK
Method: as §1, §2

[3] = molecular target: recombinant human cathepsin S (hCatS) (Homo sapiens (Human), UniProt P25774); assay: CatS functional enzyme assay (fluorogenic substrate Z-VVR-AMC); settings: Ki calculated by Cheng Prusoff equation; pH 6.5
Method: as §1, §2

recombinant human cathepsin S (hCatS), sequence (P25774 115-331): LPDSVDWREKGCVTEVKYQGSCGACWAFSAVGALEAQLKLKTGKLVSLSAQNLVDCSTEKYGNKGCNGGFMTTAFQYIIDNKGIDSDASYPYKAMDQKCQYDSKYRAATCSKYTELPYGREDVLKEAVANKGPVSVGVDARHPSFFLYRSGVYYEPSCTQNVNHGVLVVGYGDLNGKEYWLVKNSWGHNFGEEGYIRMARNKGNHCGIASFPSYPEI
recombinant human cathepsin L (hCatL), sequence (P07711 114-333): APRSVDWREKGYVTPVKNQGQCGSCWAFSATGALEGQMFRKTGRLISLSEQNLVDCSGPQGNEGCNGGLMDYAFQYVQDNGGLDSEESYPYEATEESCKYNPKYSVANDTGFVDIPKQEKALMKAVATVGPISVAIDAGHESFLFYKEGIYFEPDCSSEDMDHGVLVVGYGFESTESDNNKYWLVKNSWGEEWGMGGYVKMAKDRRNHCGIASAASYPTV
recombinant human cathepsin K (hCatK), sequence (P43235 115-329): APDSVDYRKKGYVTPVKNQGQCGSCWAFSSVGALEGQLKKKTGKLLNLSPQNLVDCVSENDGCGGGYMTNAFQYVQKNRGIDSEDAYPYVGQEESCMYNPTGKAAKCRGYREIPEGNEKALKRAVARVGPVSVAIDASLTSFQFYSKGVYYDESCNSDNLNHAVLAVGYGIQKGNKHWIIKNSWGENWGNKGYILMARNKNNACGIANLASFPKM

Structure (SMILES) | inhibition at 31.6 µM [1] [%] | pKi [2] | Selectivity Ki(hCatS)/Ki(hCatK) [2] | pKi [3]
O=C(N[C@H](C(=O)N1C[C@H](Cl)[C@H]2OCC(=O)[C@H]21)C1CCCC1)c1cccc(-c2cccnc2)c1 [Comparative Example C1, N—((S)-2-((3aS,6S,6aS)-6-chloro-3-oxotetrahydro-2H-furo[3,2-b]pyrrol-4(5H)-yl)-1-cyclopentyl-2-oxoethyl)-3-(pyridin-3-yl)benzamide, reference compound] | – | 7.83 | 6 | 7.08
O=C(N[C@H](C(=O)N1C[C@H](Cl)[C@H]2OCC(=O)[C@H]21)C1CCCC1)c1ccc(-c2cnccn2)s1 [Example 5, N—((S)-2-((3aS,6S,6aS)-6-chloro-3-oxotetrahydro-2H-furo[3,2-b]pyrrol-4(5H)-yl)-1-cyclopentyl-2-oxoethyl)-5-(pyrazin-2-yl)thiophene-2-carboxamide] | 81 | 8.68 | 169 | 6.45
O=C(N[C@H](C(=O)N1C[C@H](Cl)[C@H]2OCC(=O)[C@H]21)C1CCCC1)c1ccc(-c2ccnnc2)s1 [Example 4, N—((S)-2-((3aS,6S,6aS)-6-chloro-3-oxotetrahydro-2H-furo[3,2-b]pyrrol-4(5H)-yl)-1-cyclopentyl-2-oxoethyl)-5-(pyridazin-4-yl)thiophene-2-carboxamide] | 73 | 8.74 | 22 | 7.40
O=C(N[C@H](C(=O)N1C[C@H](Cl)[C@H]2OCC(=O)[C@H]21)C1CCCC1)c1ccc(-c2cncc(F)c2)s1 [Example 6, N—((S)-2-((3aS,6S,6aS)-6-chloro-3-oxotetrahydro-2H-furo[3,2-b]pyrrol-4(5H)-yl)-1-cyclopentyl-2-oxoethyl)-5-(5-fluoropyridin-3-yl)thiophene-2-carboxamide] | 42 | 8.51 | 55 | 6.76
O=C(N[C@H](C(=O)N1C[C@H](Cl)[C@H]2OCC(=O)[C@H]21)C1CCCC1)c1ncc(-c2cccnn2)s1 [Example 7, N—((S)-2-((3aS,6S,6aS)-6-chloro-3-oxotetrahydro-2H-furo[3,2-b]pyrrol-4(5H)-yl)-1-cyclopentyl-2-oxoethyl)-5-(pyridazin-3-yl)thiazole-2-carboxamide] | 62 | 8.28 | 50 | 6.58

Other lines, results leading:

inhibition at 31.6 µM [1] [%] | pKi [2] | Selectivity Ki(hCatS)/Ki(hCatK) [2] | pKi [3] | Structure (SMILES)
45 | 9.15 | 453 | 6.51 | O=C(N[C@H](C(=O)N1C[C@H](Cl)[C@H]2OCC(=O)[C@H]21)C1CCCC1)c1ccc(-c2cccnc2)s1 [Example 2, N—((S)-2-((3aS,6S,6aS)-6-chloro-3-oxotetrahydro-2H-furo[3,2-b]pyrrol-4(5H)-yl)-1-cyclopentyl-2-oxoethyl)-5-(pyridin-3-yl)thiophene-2-carboxamide]
72 | 8.82 | 99 | 6.82 | O=C(N[C@H](C(=O)N1C[C@H](Cl)[C@H]2OCC(=O)[C@H]21)C1CCCC1)c1ccc(-c2cccnn2)s1 [Example 1, N—((S)-2-((3aS,6S,6aS)-6-chloro-3-oxotetrahydro-2H-furo[3,2-b]pyrrol-4(5H)-yl)-1-cyclopentyl-2-oxoethyl)-5-(pyridazin-3-yl)thiophene-2-carboxamide]
50 | 9.10 | 210 | 6.80 | O=C(N[C@H](C(=O)N1C[C@H](Cl)[C@H]2OCC(=O)[C@H]21)C1CCCC1)c1ccc(-c2ccncc2)s1 [Example 8, N—((S)-2-((3aS,6S,6aS)-6-chloro-3-oxotetrahydro-2H-furo[3,2-b]pyrrol-4(5H)-yl)-1-cyclopentyl-2-oxoethyl)-5-(pyridin-4-yl)thiophene-2-carboxamide]
73 | 8.68 | 53 | 6.96 | O=C(N[C@H](C(=O)N1C[C@H](Cl)[C@H]2OCC(=O)[C@H]21)C1CCCC1)c1ccc(-c2cncnc2)s1 [Example 3, N—((S)-2-((3aS,6S,6aS)-6-chloro-3-oxotetrahydro-2H-furo[3,2-b]pyrrol-4(5H)-yl)-1-cyclopentyl-2-oxoethyl)-5-(pyrimidin-5-yl)thiophene-2-carboxamide]
